From patent US20190030036A1, “PHOSPHODIESTERASE INHIBITOR TREATMENT” (Cyrano Therapeutics, Inc., priority 2013, published 2019)
pIC50: −log10 of the molar value.

Columns and labels:
asthmatic patients = experiment: sGaw after inhaled dry powder in asthmatic patients (Examples 5, 6)
Procedure: (§1) To test this theory, asthmatic patients are enrolled in a dose escalating single blind study. On arrival to the clinic, subjects are allowed to rest for 20 minutes before baseline measurements of FEV1 (six recordings) and sGaw (five recordings) are made. Subjects receive a dry powder dispenser loaded with a dose of 2 mg theophylline or a dry powder carrier. […] After each inhalation, measurements of sGaw are made at 1, 3, 5, 10, 15, 20, 25, and 30 minutes.
On completion of the last recording, subjects inhale a 200 μg dose of salbutamol from a metered inhaler and a further measurement of sGaw is made after 15 minutes. Subjects are also monitored for coughing and are questioned about the taste of the drug.
as §1, with “Asthmatic patients” for “To test this theory, asthmatic patients”, “of 1” for “of 2”, “mg IBMX formulated as a dry powder” for “mg theophylline”
On completion of the last recording, subjects inhale a 200 μg dose of salbutamol from a metered inhaler and a further measurement of sGaw made after 15 minutes. Subjects are also be monitored for coughing and are questioned about the taste of the drug.

PDE = conditions: non-specific PDE inhibitor; cited from earlier work
patients with hyposmia = experiment: Subjective overall change in smell function; open trial of oral theophylline; type: in vivo, human; conditions: cilostazol added to 600 mg or 800 mg of theophylline in patients who improved <5%
Procedure: Independently, patients were also required to grade their ability to smell daily on a scale from 0-100, with 0 reflecting no overall smell function over a 24 hour period, 100 reflecting normal overall smell function over this period and numbers from 0-100 reflecting their estimation of their overall ability to smell odors over this period.
After determination of hyposmia, patients were treated in an open label, fixed design, controlled open trial. Patients were given an oral extended release theophylline in divided daily doses taken in the middle of breakfast and lunch. All patients were initially given 200 mg of theophylline; changes in this dose were made based upon subjective responses to therapy. If at a subsequent return visit, patients reported ≥5% subjective improvement in overall smell function, they continued on this same dose of theophylline and were reevaluated after four to six months of continued treatment. Results from any subsequent return from these improved patients were not included in any subsequent data report. All subsequent comparisons between treated and untreated patients were made only between those patients continuing in the study compared to their own measurements obtained in the untreated state. If patients reported <5% subjective improvement, their theophylline dose was increased by 200 mg daily and they were scheduled for retesting at the study site after two to four months at this new dosage. For patients that reported <5% improvement, this sequence continued until patients reached 800 mg of theophylline, at which time the study was considered completed.
Patients returned for reevaluation after two to four months of treatment. Measurements of blood serum theophylline were measured by a fluorescence polarization assay (Abbott, Chicago, Ill.). At this time, subjective changes in smell function were measured independently (compared to patient's memory of previous normal smell function monitored by use of the patients' daily measurements) using the scale from −100−0-+100 previously described. After independently recording their subjective responses, smell function was measured for all four odors with DT, RT, ME and H determined without recourse to prior measurements.
Subjective overall changes in smell acuity were reported by telephone and by FAX or email at two—four month intervals after treatment was initiated using the standardized form in which they measured daily changes in smell acuity using the −100−0-+100 scale as noted above. Using the same criteria noted above, if at their initial two—four month call-in they reported improvement in smell acuity of ≥5%, they continued at 200 mg and returned to the study site at four—six months on this treatment dose. If they reported improvement in smell acuity of <5% their dose of theophylline was increased to 400 mg for an additional two—four months and they then called the study site at the end of this period.

[1] = system: subjects with a taste and/or smell disorder; experiment: Taste and/or smell function after intranasal dosage units in a plume from a multi-dose nasal spray device (Examples 10-15); type: in vivo, human; conditions: once per day in each naris
Excerpt: The improvements in taste and/or smell function are evidenced by a decrease in the detection threshold for at least one odorant and/or tastant, a decrease in the recognition threshold for at least one odorant and/or tastant, and/or an increase in a magnitude estimation for at least one odorant and/or tastant.

**Q.** What does the source list for `CC(C)Cn1c(=O)n(C)c(=O)c2[nH]cnc21` [IBMX, 3-isobutyl-1-methylxanthine]?
**A.** sGaw above the baseline measurement (asthmatic patients; after 30 minutes, inhaled dry powder 1 mg IBMX): 20%; taste and coughing (asthmatic patients; human, in vivo): without the unpleasant taste or the induction of coughing; increase in sGaw relative to 200 μg inhaled salbutamol (asthmatic patients; inhaled dry powder 1 mg IBMX): comparable; time until sGaw baseline is reached (asthmatic patients; inhaled dry powder 1 mg IBMX): one and a half; pIC50 (PDE): 4.30 to 5.70

**Q.** Which “additional patients with improved smell function” value (patients with hyposmia) does the source give for `O=C1CCc2cc(OCCCCc3nnnn3C3CCCCC3)ccc2N1` [cilostazol] here?
**A.** 15%

**Q.** What about the “taste and/or smell function” value [1] of the same compound?
**A.** improvement in taste and/or smell function

**Q.** For `COc1ccc(Cc2nccc3cc(OC)c(OC)cc23)cc1OC` [papaverine], which “taste and/or smell function” value [1] is on record?
**A.** improvement in taste and/or smell function

**Q.** For `O=C(Nc1c(Cl)cncc1Cl)c1ccc(OC(F)F)c(OCC2CC2)c1` [roflumilast], which “taste and/or smell function” value [1] is on record?
**A.** improvement in taste and/or smell function
